Results published in patent publication US5434174A, “Isoxazole derivatives for the treatment of irritable bowel syndrome” (priority 1993, dated 1995).
Counter-ions that a name gives are not always drawn. Like-named read-outs stand apart in the source and are kept apart here.

What was measured:
[1] = molecular target: T1, muscarinic (M1) receptors (Rattus norvegicus, UniProt P08482); experiment: In vitro [3H]-pirenzepine binding (muscarinic M1, rat cerebral cortical membranes); set-up: species or system rat (male Sprague-Dawley)
T1 construct: Cerebral cortical membranes were prepared by differential centrifugation; from tissue; host or cells: rat cerebral cortex membranes
T1 sequence (P08482 1-460): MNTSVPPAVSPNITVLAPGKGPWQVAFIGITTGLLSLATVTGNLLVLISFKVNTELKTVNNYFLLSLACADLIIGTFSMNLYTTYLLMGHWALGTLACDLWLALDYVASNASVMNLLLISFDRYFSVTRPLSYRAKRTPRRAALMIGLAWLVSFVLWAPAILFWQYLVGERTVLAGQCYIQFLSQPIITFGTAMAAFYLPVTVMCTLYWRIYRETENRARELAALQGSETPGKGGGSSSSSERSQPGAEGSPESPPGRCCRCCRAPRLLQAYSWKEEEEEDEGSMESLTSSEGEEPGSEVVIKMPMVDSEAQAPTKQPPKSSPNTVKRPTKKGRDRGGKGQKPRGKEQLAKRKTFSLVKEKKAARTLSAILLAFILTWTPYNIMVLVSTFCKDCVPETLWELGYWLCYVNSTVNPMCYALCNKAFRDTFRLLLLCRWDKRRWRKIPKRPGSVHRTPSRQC
Experimental: In vitro Binding Methods for [3H]-pirenzepine Binding
For in vitro 3H-pirenzepine binding, male Sprague-Dawley (Harlan Sprague Dawley, Indianapolis, Ind.) rats weighing 100-150 gm were sacrificed by decapitation, the brains were quickly removed, and the cerebral cortex was dissected from the brain. Cerebral cortical membranes were prepared by differential centrifugation, washed twice and frozen until used.
The inhibition of binding of 3H-pirenzepine to receptors was determined by adding study drug, 1 nM 3H-pirenzepine (87.0 Ci/mmol, New England Nuclear, Boston, Mass.), and about 100 ug cerebral cortical membranes in 1 ml total volume of 20 mM tris-Cl buffer, pH 7.4, containing 1 mM MnCl2. After incubation for 1 hour at 25° C., the homogenates were filtered through glass filters (Whatman, GF/c) with vacuum, the filters were washed 3 times with 2 ml cold buffer, and placed in scintillation vials containing 10 ml scintillation fluid (Ready Protein +, Beckman, Fullerton, Calif.).
Radioactivity trapped on the filters was determined by liquid, scintillation spectrometry. Nonspecific binding was determined using 1 uM atropine.
(§1) Table II summarizes the effect of typical formula I compounds on muscarinic (M1) receptors.

5HT1A receptors = molecular target: T2, 5HT1A receptors (Rattus norvegicus, UniProt P19327); experiment: In vitro binding to 5HT1A receptors (inhibition of 3H-8-OH-DPAT binding, rat cerebral cortex synaptosomal membranes); set-up: species or system rat (male Sprague-Dawley)
T2 construct: synaptosomal membranes isolated from cerebral cortex; from tissue; host or cells: rat cerebral cortex, crude synaptosomal membranes
T2 sequence (P19327 1-422): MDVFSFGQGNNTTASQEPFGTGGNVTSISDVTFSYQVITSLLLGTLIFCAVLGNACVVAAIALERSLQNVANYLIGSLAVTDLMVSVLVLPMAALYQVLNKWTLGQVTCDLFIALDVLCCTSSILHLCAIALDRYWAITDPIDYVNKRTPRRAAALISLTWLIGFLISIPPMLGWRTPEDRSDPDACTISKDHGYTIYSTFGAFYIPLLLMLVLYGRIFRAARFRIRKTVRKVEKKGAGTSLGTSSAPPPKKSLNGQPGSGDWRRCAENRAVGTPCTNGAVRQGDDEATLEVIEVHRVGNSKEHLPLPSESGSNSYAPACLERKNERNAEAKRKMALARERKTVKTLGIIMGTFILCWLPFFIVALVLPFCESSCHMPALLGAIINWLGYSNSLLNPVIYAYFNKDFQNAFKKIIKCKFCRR
Text: Sites specifically labeled by tritiated 8-hydroxy-2-dipropylamino-1,2,3,4-tetrahydronaphthalene (^3 H-8-OH-DPAT) have been identified as 5-HT1A receptors. This general procedure is set forth in Wong et al., J. Neural Transm. 71: 207-218 (1988).
In vitro Binding Methods to 5HT1A Receptors
Male Sprague-Dawley rats (110-150 g) from Harlan Industries (Cumberland, Ind.) were fed Purina Chow ad libitum for at least 3 days before being used in the studies. Rats were killed by decapitation. The brains were rapidly removed, and the cerebral cortices were dissected out at 4° C.
Brain tissues were homogenized in 0.32M sucrose. After centrifugation at 1000× g for 10 min. and then at 17000× g for 20 min., a crude synaptosomal fraction was sedimented. The pellet was suspended in 100 vol. of 50 mM Tris-HCl, pH 7.4, incubated at 37° C. for 10 min., and centrifuged at 50000× g for 10 min. The process was repeated and the final pellet was suspended in ice-chilled 50 mM Tris-HCl, pH 7.4.
Binding of ^3 H-8-OH-DPAT was performed according to the previously described method [Wong et al., J. Neural Transm. 64: 251-269 (1985)]. Briefly, synaptosomal membranes isolated from cerebral cortex were incubated at 37° C. for 10 min. in 2 ml of 50 mM Tris-HCl, pH 7.4; […]; 0.6 mM ascorbic acid; 5 mM CaCl2; 2 nM 3H-8-OH-DPATand 0.1 to 1000 nm of the compound of interest. Binding was terminated by filtering samples under reduced pressure through glass fiber (GFB) filters. The filters were washed twice with 5 ml of ice cold buffer and placed in scintillation vials with 10 ml of PCS (Amersham/Searle) scintillation fluid. Radioactivity was measured with a liquid scintillation spectrometer. Unlabeled 8-OH-DPAT at […] was also included in separate samples to establish non-specific binding. Specific binding of ^3 H-8-OH-DPAT is defined as the difference of radioactivity bound in the absence and in the presence of 10 μM unlabeled 8-OH-DPAT.
(§2) The results in columns 6-8 are indicative of 5-HT1A agonist activity.

[2] = test system: serum corticosterone levels; experiment: In vivo elevation of serum corticosterone levels; set-up: species or system rat (male Sprague-Dawley); details: Rattus norvegicus, 1 h, sc, read-out: Corticosterone MED
Experimental: (§3) In vivo Methods to Show 5HT1A Activity
(§4) Compounds of this invention were also examined for their in vivo effects on brain 5-HIAA and serum corticosterone levels. Male Sprague-Dawley rats weighing 150-200 g were administered subcutaneously or orally with aqueous solutions of the test compound. One hour after treatment, the rats were decapitated and trunk blood collected. The blood was allowed to clot and then was centrifuged to separate the serum. The concentration of corticosterone in the serum was determined by the spectrofluorometric method of Solem, J. H.; Brinck-Johnsen, T., Scand. J. Clin. Invest, [Suppl. 80], 17, 1 (1965). The whole brains from the decapitated rats were quickly removed, frozen on dry ice, and stored at -15° C. 5-HIAA concentrations were measured by liquid chromatography with electrochemical detection as described by Fuller, R. W.; Snoddy, H. D.; Perry, K. W., Life Sci. 40, 1921 (1987).
as §2

brain 5-HIAA levels = experiment: In vivo lowering of brain 5-HIAA levels; set-up: species or system rat (male Sprague-Dawley); details: Rattus norvegicus, 1 h, minimum effective dose lowering brain 5-HIAA, one hour after treatment, read-out: 5-HIAA MED
Experimental: as §3, §4, §2

[3] = test system: pylorus ligated rats (gastric acid secretion); type: in vivo, rat (male Sprague-Dawley); details: 2 h
Experimental: Gastric acid inhibition was determined in pylorus ligated rats following the procedure by Shay (Shay, H., Komarov, A. A. and Greenstein, M: Effects of vagotomy in the rat, Arch. Surg. 59: 210-226, 1949). Male Sprague-Dawley rats weighing approximately 200 gm were starved 24 hours prior to using. Water was provided ad libitrim. Under light ether anesthesia the pylorus was ligated and simultaneously the rats were dosed with the compound either i.p. or s.c. and the rats were allowed to recover from anesthetic. Acid was accumulated for 2 hours. At the end of this period, rats were killed. Stomach contents were removed, measured and titrated to a pH endpoint of 7.0.
as §2

gastric secretion = details: intravenous infusion in humans; cited from earlier work
[4] = test system: rat colon (carbachol-induced contraction); experiment: Reversal of carbachol-induced hypertone (contraction of rat colon strips in vitro); set-up: species or system rat (male Sprague-Dawley); details: colonic smooth muscle in vitro, read-out: Blockade of carbachol-induced contraction of rat colon (IC50)
Experimental: Reversal of Carbachol-Induced Hypertone
Male Spraque-Dawley rats weighing 300-350 gm were starved for 24 hours. The rats were brought to the lab and decapitated and colons were removed immediately. Fecal content was washed and longitudinal strips 4 cm long were placed in organ baths under 1 gm tension using Grass FT03 transducers. Tissues were allowed to equilibrate and were gassed with 95% oxygen and 5% carbon dioxide. The tissues were then contracted with carbachol to produce a tonic response. Then the drug solutions were added to see relaxation. Percent relaxation was calculated from the pre-treatment control period. For many compounds more than one concentration of the drug was tested. In these situations an IC50 was calculated, which is the dose which inhibited carbachol induced response by 50%.
as §1

[5] = inhibition of 3H-pirenzepine binding, rat cerebral cortical membranes, read-out: Radioligand binding data (IC50, nM) M1
[6] = inhibition of 3H-8-OH-DPAT binding, rat cerebral cortex, read-out: Radioligand binding data (IC50, nM) 5-HT1a

Row | SMILES | IC50 [1, 5] | IC50 (5HT1A receptors) | minimal effective dose ([2]; minimum effective dose elevating serum corticosterone, one hour after treatment) | minimal effective dose (brain 5-HIAA levels; sc) | Gastric Acid Inhibition % [3] | effect on production of mucus (gastric secretion) | effect on volume and acidity of spontaneous and histamine-induced gastric secretion (gastric secretion) | IC50 (5HT1A receptors; [6]) | minimal effective dose [2] | minimal effective dose (brain 5-HIAA levels; po) | IC50 [4] | IC50 [1]
1 | CCCN(CCC)C1CCc2cccc(-c3cc(SC)no3)c2C1 (stereo not drawn) [Example 7, 2-(Di-n-propylamino)-8-(3-methylthioisoxazol-5-yl)-1,2,3,4-tetrahydronaphthalene maleate] | 173 nM | 1.2 nM | > 1 mg/kg | > 1 mg/kg | 65.4% | – | – | – | – | – | – | –
2 | N[C@@H](Cc1c[nH]c2ccc(O)cc12)C(=O)O [Example 5-HTP, 5-hydroxytryptophane] | – | – | – | – | – | increasing the production of mucus | inhibits the volume and acidity of both spontaneous and histamine-induced gastric secretion | – | – | – | – | –
3 | CCCN(CCC)C1CCc2cccc(-c3cc(-c4ccccc4)no3)c2C1 (stereo not drawn) [Example 6, 2-(Di-n-propylamino)-8-(3-phenylisoxazol-5-yl)-1,2,3,4-tetrahydronaphthalene hydrobromide] | 750 nM | – | – | – | – | – | – | 72 nM | – | – | – | –
4 | CCCN(CCC)C1CCc2cccc(-c3ccno3)c2C1.O=C(O)/C=C\C(=O)O (stereo not drawn) [Example 1, 2-(Di-n-propylamino)-8-(isoxazol-5-yl)-1,2,3,4-tetrahydronaphthalene maleate] | – | – | – | 0.1 mg/kg | 69.6% | – | – | 0.44 nM | 0.3 mg/kg | 3 mg/kg | 8100 nM | –
5 | CCCN(CCC)C1CCc2cccc(O)c2C1 (stereo not drawn) [8-OH DPAT, 8-hydroxy-2-dipropylamino-1,2,3,4-tetrahydronaphthalene, reference compound] | – | – | – | – | 72.4% | – | – | – | – | – | 29800 nM | 1940 nM
6 | CCCN(CCC)C1CCc2cccc(-c3cc(Br)no3)c2C1.O=C(O)/C=C\C(=O)O (stereo not drawn) [Example 2, 2-(Di-n-propylamino)-8-(3-bromoisoxazol-5-yl)-1,2,3,4-tetrahydronaphthalene maleate] | – | – | – | > 1 mg/kg | – | – | – | 2.5 nM | > 1 mg/kg | – | 4600 nM | 220 nM
7 | Br.CCCN(CCC)C1CCc2cccc(-c3oncc3OC)c2C1 (stereo not drawn) [Example 8, 2-(Di-n-propylamino)-8-(4-methoxyisoxazol-5-yl)-1,2,3,4-tetrahydronaphthalene hydrobromide] | – | – | – | 1 mg/kg | 46.8% | – | – | 1.7 nM | > 1 mg/kg | – | – | 195 nM
8 | CCCN(CCC)C1CCc2cccc(-c3oncc3C)c2C1.O=C(O)/C=C\C(=O)O (stereo not drawn) [Example 3, 2-(Di-n-propylamino)-8-(4-methylisoxazol-5-yl)-1,2,3,4-tetrahydronaphthalene maleate] | – | – | – | 0.3 mg/kg | 95.7% | – | – | 1.9 nM | 1 mg/kg | > 10 mg/kg | – | 190 nM
9 | NCCc1c[nH]c2ccc(O)cc12 [Example 5-HT, 5-hydroxytryptamine] | – | – | – | – | – | increasing the production of mucus | inhibits the volume and acidity of both spontaneous and histamine-induced gastric secretion | – | – | – | – | –
10 | CCCN(CCC)[C@@H]1CCc2cccc(-c3ccno3)c2C1.O=C(O)/C=C\C(=O)O [Example 10, R-(+)-8-(isoxazol-5-yl)-2-dipropylamino-1,2,3,4-tetrahydronaphthalene maleate] | – | – | – | – | 47.1% | – | – | 1.4 nM | – | 10 mg/kg | 9100 nM | 150 nM
11 | CCCN(CCC)C1CCc2cccc(-c3cc(C)no3)c2C1.O=C(O)/C=C\C(=O)O (stereo not drawn) [Example 5, 2-(Di-n-propylamino)-8-(3-methylisoxazol-5-yl)-1,2,3,4-tetrahydronaphthalene maleate] | – | – | – | 1 mg/kg | 95.8% | – | – | 1.3 nM | > 1 mg/kg | – | – | 107 nM
12 | CCCN(CCC)[C@H]1CCc2cccc(-c3ccno3)c2C1 [Example 9, S-(-)-8-(isoxazol-5-yl)-2-dipropylamino-1,2,3,4-tetrahydronaphthalene maleate] | 180 nM | 0.2 nM | – | – | 96.8% | – | – | – | – | 3 mg/kg | 2500 nM | –
